One data set concerns the target T1, RXRα (Homo sapiens, UniProt P19793).
T1 sequence (P19793 1-462): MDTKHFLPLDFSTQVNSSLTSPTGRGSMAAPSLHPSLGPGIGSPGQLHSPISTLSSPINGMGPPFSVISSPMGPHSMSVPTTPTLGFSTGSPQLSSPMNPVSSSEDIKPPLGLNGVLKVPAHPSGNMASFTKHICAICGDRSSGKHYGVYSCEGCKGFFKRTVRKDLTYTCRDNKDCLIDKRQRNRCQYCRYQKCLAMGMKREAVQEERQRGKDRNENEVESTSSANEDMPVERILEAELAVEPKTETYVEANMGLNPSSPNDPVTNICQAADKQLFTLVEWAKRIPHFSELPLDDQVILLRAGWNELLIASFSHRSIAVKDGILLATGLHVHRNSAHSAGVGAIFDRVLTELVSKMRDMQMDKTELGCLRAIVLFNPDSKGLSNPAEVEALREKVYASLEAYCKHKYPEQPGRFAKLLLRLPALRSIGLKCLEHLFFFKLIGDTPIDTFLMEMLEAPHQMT
Description: RXR binding, competition with tritiated retinoid. Particulars: read-out: RXR Binding alpha. The text has this:
In addition to the cotransfection data, the binding of selected compounds of the present invention to the RAR and RXR receptors was also investigated according to the methodology described in M. F., Boehm, et al., “Synthesis and Structure-Activity Relation-ships of Novel Retinoid X Receptor Selective Retinoids”, 37 J. Med. Chem., 2930 (1994); M. F. Boehm, et al., “Synthesis of High Specific Activity [^3H]-9-cis Retinoic Acid and Its Application for Identifying Retinoids with Unusual Binding Properties”, 37 J. Med. Chem., 408 (1994), and E. A. Allegretto, et al., “Characterization and Comparison of Hormone-Binding and Transactivation Properties of Retinoic Acid and Retinoid X Receptors Expressed in Mammalian Cells and Yeast”, 268 J. Biol. Chem., 22625 (1993), the disclosures of which are herein incorporated by reference.
Non-specific binding was defined as that binding remaining in the presence of 500 nM of the appropriate unlabelled compound. At the end of the incubation period, bound ligand was separated from free. The amount of bound tritiated retinoid was determined by liquid scintillation counting of an aliquot (700 μL) of the supernatant fluid or the hydroxylapatite pellet.
After correcting for non-specific binding, IC50 values were determined. The IC50 value is defined as the concentration of competing ligand needed to reduce specific binding by 50%. The IC50 value was determined graphically from a log-logit plot of the data. The Ki values were determined by application of the Cheng-Prussof equation to the IC50 values, the labeled ligand concentration and the Kd of the labeled ligand.

For another data set, the system named is RXR:RAR heterodimer. The data set is described as follows: RXR:RAR heterodimer co-transfection assay (RARa Synergy CTF) in CV-1 cells. The data set is classed as cell-based, human. Particulars: for RARa Synergy CTF % Efficacy: agonist efficacy. From the text:
In the co-transfection assay, cloned cDNA for one or more IRs (e.g. human RARα, RXRα, or PPARγ), alone or in combination (i.e. for heterodimer assays) under the control of a constitutive promoter (e.g., the SV 40, RSV or CMV promoter) is introduced by transfection (a procedure to introduce exogenous genes into cells) into a background cell substantially devoid of endogenous IRs. These introduced gene(s) direct the recipient cells to make the IR protein(s) of interest. A further gene is also introduced (co-transfected) into the same cells in conjunction with the IR gene(s). This further gene, comprising the cDNA for a reporter protein, such as firefly luciferase (LUC), controlled by an appropriate hormone responsive promoter containing a hormone response element (HRE). This reporter plasmid functions as a reporter for the transcriptional-modulating activity of the target IR(s). Thus, the reporter acts as a surrogate for the products (mRNA then protein) normally expressed by a gene under control of the target receptor(s) and their native hormone(s).
The RXR modulator compounds of the present invention were further tested for activity on RXR heterodimers with RARα utilizing the cotransfection assay in CV-1 cells as described in Example 12B. The RXR:RAR heterodimer cotransfection assays utilized the following expression plasmids and reporter plasmid: pRShRARα (10 ng/well, Giguere et al., 330 Nature, 624 (1987) the disclosure of which is herein incorporated by reference) or pRShRARγ (10 ng/well, Ishikawa et al., 4 Mol. Endocrin, 837 (1990) the disclosure of which is herein incorporated by reference) with Δ-MTV-LUC (50 ng/well, Hollenberg and Evans, 55 Cell, 899 (1988), the disclosure of which is herein incorporated by reference) containing an RARE which is referred to as two copies of the TRE-palindromic response element described in Umesono et al., 336 Nature, 262 (1988), the disclosure of which is herein incorporated by reference. To conduct a RXR:PPARγ heterodimer cotransfection assay, the RXRα receptor expression plasmid, pRShRXRα (10 ng/well), can be cotransfected with the PPARγ expression plasmid, pCMVhPPARγ (10 ng/well), and a reporter plasmid containing three copies of a PPARγ response element (pPREA3-tk-LUC, 50 ng/well; Mukherjee et al. 272 Journ. Biol. Chem., 8071-8076 (1997) and references cited therein, the disclosures of which are herein incorporated by reference).
Cotransfections were performed as described in Example 12B. For determination of agonist activity in the context of the RXR:RAR heterodimer, media containing compounds of the present invention in concentrations ranging from 10^−10 to 10^−5 M were added to the cells. Similarly, the reference compounds all-trans retinoic acid (ATRA)(Sigma Chemical) and TTNPB ((E)-4-[2-(5,6,7,8-tetrahydro-5,5,8,8-tetramethyl-2-naphthalenyl)-1-propenyl]benzoic acid: Hoffman LaRoche, Inc.), known RAR agonist compounds were added at similar concentrations to provide a reference point for analysis of the agonist activity of the compounds of the present invention. Antagonist efficacy and IC50 values were determined as in Example 12B.
RAR suppresses RXR ligand binding and transactivation of typical RXR agonists (e.g., LGD1069, LG100268) via allosteric interactions. Forman, B. M., Umesono, K., Chen, J., & Evans, R. M., Cell 81, 541-550 (1995) and Kurokawa, R., et. al. Nature 371, 528-531 (1994). However, when RAR is occupied, typical RXR agonists activate the heterodimer. Forman, B. M., Umesono, K, Chen, J., & Evans, R. M., Cell 81, 541-550 (1995) and Roy, B., Taneja, R., & Chambon, P., Mol. Cell. Biol. 15, 6481-6487 (1995). To examine the effects of the compounds of the present invention on the transcriptional properties of the RXR:RAR heterodimer, a heterodimer cotransfection assay as described above was employed.

On to `C/C(=C/C=C(F)/C(C)=C/C(=O)O)c1cc(C(C)(C)C)cc(C(C)(C)C)c1OCC(F)F` [Example 1, 7-[3,5-di-tert-butyl-2-(2,2-difluoroethoxy)-phenyl]4-fluoro-3-methyl-octa-2,4,6-trienoic acid], for which the Ki on RXRα was determined as 4.8 nM. Further, in the data set with RXR:RAR heterodimer, the “RARa Synergy CTF fold induction” value came to 3 and the “RARa Synergy CTF % Efficacy” value is listed as 28%.

`C/C(=C/C(F)=C/C(C)=C/C(=O)O)c1cc(C(C)(C)C)cc(C(C)(C)C)c1OCC(F)F` [Example 2, 7-[3,5-Di-tert-butyl-2-(2,2-difluoroethoxy)-phenyl]-5-fluoro-3-methyl-octa-2,4,6-trienoic acid]: the Ki on RXRα is 8.2 nM. In addition, in the data set with RXR:RAR heterodimer, the “RARa Synergy CTF fold induction” value is recorded as 9 and the “RARa Synergy CTF % Efficacy” value was 112%.

For the compound `CCCCOc1c(\C(C)=C/C=C/C(=C/C(=O)O)C(F)(F)F)cc(C(C)C)cc1C(C)C` [Example 3, (2Z,4E,6Z)-7-(2-Butoxy-3,5-diisopropylphenyl)-3-trifluoromethyl-octa-2,4,6-trienoic acid], the Ki on RXRα came out at 1300 nM. Besides, in the data set with RXR:RAR heterodimer, the “RARa Synergy CTF fold induction” value came to 1 and the “RARa Synergy CTF % Efficacy” value is given as 6%.

Consider `CCCCOc1c(\C(C)=C/C=C/C(=C\C(=O)O)C(F)(F)F)cc(C(C)C)cc1C(C)C` [Example 4, (2E,4E,6Z)-7-(2-Butoxy-3,5-diisopropylphenyl)-3-trifluoromethyl-octa-2,4,6-trienoic acid], for which the Ki at RXRα turned out to be 9110 nM. Besides, in the data set on RXR:RAR heterodimer, the “RARa Synergy CTF fold induction” value came out at 1 and the “RARa Synergy CTF % Efficacy” value is reported as 6%.

In the case of `CCOc1c(\C(=C/C=C/C(C)=C/C(=O)O)C(F)(F)F)cc(C(C)(C)C)cc1C(C)(C)C` [Example 5, (2E,4E,6E)-3-methyl-7-(2-ethoxy-3,5-di-tert-butylphenyl)-8,8,8-trifluoroocta-2,4,6-trienoic acid], the Ki at RXRα is 38 nM. Also, the “RARa Synergy CTF % Efficacy” value in the data set with RXR:RAR heterodimer was 7%.
